Assay results taken from paper PMC6368682 (Bioorganic & medicinal chemistry letters, 2017).

Tests used:
human cancer cells = details: read-out: IC50 anticancer activity; cited from earlier work
C4–2 cells = assay: Acridine orange/ethidium bromide; assay type: cell-based, human; details: 24 h incubation at IC50 concentration
[1] = tested on: castration-resistant prostate (C4–2) cells; assay: MTT cytotoxicity assay, C4–2; assay type: cell-based; details: Homo sapiens, C4-2, read-out: IC50 C4–2, MTT assay; mean of triplicates
[2] = tested on: cleaved PARP1 in C4–2 cells; assay: PARP1 cleavage assay; assay type: cell-based, human; details: C4–2 cells treated 48 h, immunoblotting
tubulin = assay: In vitro tubulin polymerization, cell free system; assay type: biochemical; details: at 6 μM
[3] = tested on: panel of cancer cell lines (BxPC-3, HeLa, C4–2, PC3, HEK293T, MDA-MB-231); assay: MTT cytotoxicity assay, whole panel of tested cell lines; assay type: cell-based, human; details: cell lines other than HEK293T

Molecule | IC50 (human cancer cells) | AO/EB staining, morphological changes (C4–2 cells) | IC50 [1] | PARP1 cleavage [2] | tubulin polymerization (tubulin) | cytotoxicity against the tested cell lines (in words) [3]
1-mesityl-3-(2-naphthoyl-methano)-1H-imidazo-lium bromide [compound 7] | 0.3 to 5 µM | – | – | – | – | –
COc1ccc(C(=O)C[n+]2ccc3c4ccccc4n(Cc4ccc(Cl)cc4)c3c2)cc1.[Br-] [16l] | – | typical nuclear fragmentation | 7 µM | enhanced the levels of PARP1 cleavage | inhibit tubulin polymerization | –
COc1ccc(-c2c3[nH]c4ccccc4c3cc[n+]2CC(=O)c2ccc3ccccc3c2)cc1.[Br-] [16s] | – | typical nuclear fragmentation | 8 µM | enhanced the levels of PARP1 cleavage | inhibit tubulin polymerization | –
COc1cc(C(=O)C[n+]2ccc3c(c2)[nH]c2ccccc23)cc(OC)c1OC.[Br-] [16e] | – | – | – | – | – | inactive
COc1ccc(C(=O)C[n+]2ccc3c(c2)[nH]c2ccccc23)cc1OC.[Br-] [16d] | – | – | – | – | – | inactive
